Test results published in the NIST ThermoML archive (doi:10.1016/j.jct.2007.09.007).
± gives the expanded uncertainty stated by the source.

Conditions: 101.33 kPa, Liquid

SMILES	mass density (288.15 K)	mass density (293.15 K)	mass density (298.15 K)	mass density (303.15 K)
CC(C)OC(C)C [diisopropyl ether]	728.82 ± 0.94 kg/m3	723.67 ± 0.95 kg/m3	718.46 ± 0.96 kg/m3	713.21 ± 0.97 kg/m3
C1CCOC1 [tetrahydrofuran]	892.86 ± 0.33 kg/m3	887.52 ± 0.34 kg/m3	882.04 ± 0.35 kg/m3	876.54 ± 0.36 kg/m3
C1COCCO1 [1,4-dioxane]	1038.78 ± 0.24 kg/m3	1033.16 ± 0.23 kg/m3	1027.51 ± 0.22 kg/m3	1021.84 ± 0.21 kg/m3
CC#N [acetonitrile]	787.38 ± 0.23 kg/m3	782.01 ± 0.24 kg/m3	776.62 ± 0.24 kg/m3	771.19 ± 0.25 kg/m3
